The results in this text go back to patent US20140377219A1, “HIV INHIBITORS” (New york Blood Center, Inc., priority 2011, published 2014).

Structures are written as SMILES. Where two headings read alike, the source gives them in different places.

Usually IC50 stands for the concentration that inhibits the measured activity by half. In general, CC50 refers to the concentration that lowers cell viability or growth by half.

The target of one data set is T1, HIV-1IIIB gp120 and sCD4 (Human immunodeficiency virus type 1 group M subtype B, UniProt P03375).
T1 construct: recombinant gp120 from HIV-1IIIB and HIV-1MN
Briefly: biochemical. The format is binding. The following applies: captured ELISA, sCD4 0.25 μg/ml; read-out: IC50 (μM ± SD), interaction HIV-1IIIB gp120 and sCD4. The method, then: (§1) The compounds were incubated at graded concentrations with sCD4 (0.25 μg/ml) in the wells of polystyrene plates containing recombinant gp120, which was captured by coating the plates with a sheep anti-gp120 antibody D7324.

The next data set has as its target T2, HIV-1MN gp120 and sCD4 (Human immunodeficiency virus type 1 group M subtype B, UniProt P05877).
T2 construct: recombinant gp120 from HIV-1IIIB and HIV-1MN
Briefly: biochemical. The format is binding. The following applies: captured ELISA, sCD4 0.25 μg/ml; read-out: IC50 (μM ± SD), interaction HIV-1MN gp120 and sCD4. The method, then: as §1

The next data set deals with MT-2 cells. Briefly: Cytotoxicity in MT-2 cells (XTT). It is filed as cell-based. Put shortly: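 XTT viability read-out: MT-2 cells (10^5 cells/ml) incubated with graded compound concentrations four days at 37° C; PBMC at 5×10^5 cells/ml, measured after seven days. CC50 derived from percentage cytotoxicity.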
Background: Formazan colour is commonly taken as a measure of viable cells.

The test system of the next data set is TZM-bl cells. Briefly: Cytotoxicity in TZM-bl cells (XTT). The format is cell-based. Put shortly:
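TZM-bl cells (10^5/ml) combined with equal volumes of compound at graded concentrations and incubated 3 days at 37° C. Viability measured colorimetrically by XTT tetrazolium dye reduction.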

Data set [1] deals with Panel C env ZM-197M.PB7, SVPC6. The format is cell-based. The following applies: TZM-bl, read-out: IC50 (μM) ± S.D., antiviral activity against HIV-1 envelope pseudoviruses.
The next data set concerns HIV-1 89.6. Briefly: Neutralization assay in PBMC (p24 ELISA). The following applies: read-out: IC50 (μM) ± S.D., inhibitory activity on infection; 89.6, subtype B, PBMC, R5X4, laboratory strain.
For a further data set, the target named is gp120-CD4 interaction (Human immunodeficiency virus type 1 group M subtype B, UniProt P03375). It is filed as binding. The note with it: FIG. 7.
The test system of data set [2] is primary HIV-1 isolate RU570 (clade G, R5). Nature of the data set: Neutralization assay in PBMC (p24 ELISA). The following applies: read-out: IC50 (μM) ± S.D., inhibitory activity on infection; RU570, subtype G, PBMC, R5, primary isolate. (An ELISA detects its analyte on a solid surface through an enzyme-linked reagent.)
Experimental: PBMCs were isolated from the blood of healthy donors at the New York Blood Center by standard density-gradient centrifugation using Histopaque-1077 (Sigma-Aldrich). The cells were cultured at 37° C. for 2 h. Non-adherent cells were collected and resuspended at 5×10^6 cells/ml in RPMI-1640 medium containing 10% (v/v) fetal bovine serum, 5 μg/ml of phytohemagglutinin, and 100 U/ml of IL-2 (Sigma-Aldrich), followed by incubation at 37° C. for three days.
For data set [3], the system named is CD4-dependent virus (ADA). The format is cell-based. The following applies: ADA in Cf2Th-CD4+-CCR5+ target cells, FIG. 5; read-out: IC50, inhibition of the CD4-dependent virus.
The subject of data set [4] is primary HIV-1 isolate 93MW959 (clade C, R5). Nature of the data set: Neutralization assay in PBMC (p24 ELISA). The following applies: read-out: IC50 (μM) ± S.D., inhibitory activity on infection, 93MW959, subtype C.
Experimental: (§2) The inhibitory activity of small molecules on infection by primary HIV-1 isolates was determined. PBMCs were isolated from the blood of healthy donors at the New York Blood Center by standard density-gradient centrifugation using Histopaque-1077 (Sigma-Aldrich). The cells were cultured at 37° C. for 2 h. Non-adherent cells were collected and resuspended at 5×10^6 cells/ml in RPMI-1640 medium containing 10% (v/v) fetal bovine serum, 5 μg/ml of phytohemagglutinin, and 100 U/ml of IL-2 (Sigma-Aldrich), followed by incubation at 37° C. for three days.
Data set [5] deals with HIV-1 RF/L-323-12-3 (protease resistant isolate). Nature of the data set: Multi-cycle neutralization assay in MT-2 cells. The following applies: read-out: IC50 (μM) ± S.D., inhibitory activity on infection; HIV-1 RF/L-323-12-3, subtype B, MT-2, X4, protease resistant isolate.
A further data set addresses gp120 (Human immunodeficiency virus type 1 group M subtype B, UniProt P03375). Nature of the data set: biochemical. It is filed as binding, HIV-1. The following applies: SPR, ligand gp120.
Data set [6] has as its system Panel C env ZM-214M.PL15, SVPC7. The format is cell-based. The following applies: TZM-bl, read-out: IC50 (μM) ± S.D., antiviral activity against HIV-1 envelope pseudoviruses.
Data set [7] has as its system laboratory-adapted HIV-1 IIIB strain.
Experimental: In brief, 1×10^4 MT-2 cells were infected with HIV-1 at 100 TCID50 (50% tissue culture infective dose) (0.01MOI) in 200 μl medium in the presence or absence of small molecules at graded concentrations and incubated overnight. The culture supernatants were then removed and replaced with fresh media. On the fourth day post-infection, 100 μl of culture supernatants were collected from each well, mixed with equal volume of 5% Triton X-100 and tested for p24 antigen by sandwich-ELISA. The percent inhibition of p24 production and IC50 values were calculated by the GraphPad Prism software (GraphPad Software Inc.).
The target of another data set is CD4 (Homo sapiens, UniProt P01730). Briefly: Surface plasmon resonance (SPR), ligand CD4. It is filed as binding. The note with it: SPR. (In general: In SPR one partner is held on a chip, and binding of the other changes the refractive index at the surface.)
The test system of data set [8] is Panel C env Du156, clone 12 (SVPC3). The format is cell-based. The note with it: TZM-bl, read-out: IC50 (μM) ± S.D., antiviral activity against HIV-1 envelope pseudoviruses.
Where [9] appears, read: MT-2 cells, XTT, four days, read-out: MT-2 Cells CC50.
The mark [10] stands for this setting: TZM-bl cells, XTT, 3 days, read-out: TZM-bl cells CC50 (μM ± SD).
[11] abbreviates: at the dose given as CC50 bound.
Where [12] appears, read: read-out: IC50 (μM) ± S.D., inhibitory activity on infection, IIIB, subtype B, MT-2, X4, laboratory strain.
Setting [13] is: read-out: MT-2 Cells IC50 (μM ± SD), multi-cycle assay, MT-2 cells, HIV-1 IIIB.

Experimental for HIV-1 89.6: as §2

Take `CC1(C)CC(NC(=O)C(=O)Nc2ccc(Cl)cc2)CC(C)(C)N1` [NBD-556, reference compound]: the IC50 on HIV-1IIIB gp120 and sCD4 came out at 2.11 µM; at HIV-1MN gp120 and sCD4, 5.66 ± 0.8 µM; in [1] it was 7.9 ± 0.9 µM; with HIV-1 89.6, 4.8 ± 1 µM; in [2], 19.5 ± 2.3 µM; in data set [3], 22.6 µM. The IC50 in data set [4] was 57.2 ± 8.7 µM; in data set [5] it was > 59 µM; in [6] it was 6.5 ± 1.3 µM; in data set [7] (setting [12]), 6.5 ± 0.1 µM; in data set [7] (setting [13]), 8 ± 0.2 µM. Besides, the CC50 with MT-2 cells (MT-2 cells, XTT, four days, listed as 1, read-out: MT-2 Cells CC50) is ~150 µM; in the data set with MT-2 cells (setting [9]), 280 µM; with TZM-bl cells (setting [10]), > 60 µM. In addition, in the data set with TZM-bl cells (setting [11]), the “% toxicity at that dose (number in parenthesis), TZM-bl cells” value (“% toxicity at that dose … TZM-bl cells” below) is recorded as 10%. In addition, the “inhibition of the gp120-CD4 interaction” value on gp120-CD4 interaction is “in a dose dependent manner”. The “Rmax (RU)” value on gp120 came out at 6.99 RU. For the same compound, at CD4, the “binding to CD4” value is on record as “not to CD4”.

Take `Cc1ccc(NC(=O)C(=O)NC(c2nc(C)c(CO)s2)C2CCCCN2)cc1F.Cl` (centres unmarked) [Compound 28, N^1-(3-fluoro-4-methylphenyl)-N^2-((5-(hydroxymethyl)-4-methylthiazol-2-yl)(piperidin-2-yl)methyl)oxalamide.HCl]: the CC50 is ~85 µM in the data set on MT-2 cells (MT-2 cells, XTT, four days, listed as NBD-11008, read-out: MT-2 Cells CC50); > 88 µM in the data set with MT-2 cells (setting [9]); > 88 µM in the data set with TZM-bl cells (setting [10]). Besides, in the data set with MT-2 cells (setting [11]), the “% toxicity at that dose (number in parenthesis), MT-2 cells” value came to 30%. Moreover, the “% toxicity at that dose … TZM-bl cells” value in the data set with TZM-bl cells (setting [11]) is on record as 0%. Further, the IC50 was > 42 µM in data set [1]; 3.9 ± 0.5 µM with HIV-1 89.6; 15.7 ± 0.2 µM in data set [2]; > 42.5 µM in [4]; 4.8 ± 0.9 µM in data set [5]; > 42 µM in [6]. Besides, the IC50 in data set [7] (setting [12]) is 3.7 ± 0.7 µM; in data set [7] (setting [13]) it was 5.3 ± 0.5 µM.

Take `Cc1nc(C(NC(=O)C(=O)Nc2ccc(Cl)cc2)C2CCCCN2)sc1CO.Cl` (centres unmarked) [Compound 6, N^1-(4-chlorophenyl)-N^2-((5-(hydroxymethyl)-4-methylthiazol-2-yl)(piperidin-2-yl)methyl)oxalamide.HCl]: the “% toxicity at that dose (number in parenthesis), MT-2 cells” value in the data set on MT-2 cells is given as 40%. Besides, the CC50 in the data set with MT-2 cells was > 108 µM; with TZM-bl cells, > 22 µM. In the data set with TZM-bl cells, the “% toxicity at that dose … TZM-bl cells” value amounted to 10%. The IC50 in data set [1] was > 21 µM; in data set [2] it was 8.5 ± 0.8 µM; in [4] it was > 43.5 µM; in [5], 14.7 ± 2.3 µM; in data set [6] it was > 21 µM; in [7] (setting [12]), 4.7 ± 0.6 µM. Besides, the IC50 in data set [7] (setting [13]) was determined as 4.7 ± 0.6 µM; in [8] it was 4.6 ± 0.13 µM. In addition, on gp120-CD4 interaction, the “inhibition of the gp120-CD4 interaction” value is reported as “inhibit gp120-CD4 interaction in a dose dependent manner”.

In the case of `Cc1nc(C(NC(=O)C(=O)Nc2ccc(Cl)c(F)c2)C2CCCCN2)sc1CCO.Cl` (centres unmarked) [Compound 39, N^1-(4-chloro-3-fluorophenyl)-N^2-((5-(2-hydroxyethyl)-4-methylthiazol-2-yl)(piperidin-2-yl)methyl)oxalamide.HCl], the CC50 in the data set with TZM-bl cells is ~61 µM. In addition, the IC50 in data set [1] stood at 2.3 ± 0.2 µM; with HIV-1 89.6, 6.2 ± 0.3 µM; in data set [2], 10.7 ± 0.5 µM; in data set [5], 6.9 ± 1 µM; in data set [6], 2.9 ± 0.4 µM; in data set [7] (setting [12]), 3.5 ± 0.9 µM. Moreover, the IC50 was determined as 3.5 ± 0.9 µM in [7] (setting [13]) and 1.7 ± 0.2 µM in data set [8].
